Measured values: patent publication US20170007610A1, “NOVEL HETEROBICYCLIC COMPOUNDS AS KAPPA OPIOID AGONISTS” (priority 2014, published 2017)

Assays:
kappa opioid receptor [1] = biological target: T1, kappa opioid receptor (Homo sapiens, UniProt P41145); test: Invitro KOR agonistic activity, cAMP based functional assay; type: cell-based
T1 construct: grown in complete Ham's F-12 medium

ICR mice [2] = test: Assessment of CNS effects (spontaneous locomotion, sedation, catalepsy), threshold dose; type: in vivo; settings: lowest dose which shows pharmacodynamic effect (locomotion, sedation, catalepsy), oral or i.v.
Protocol: (§1) All the animal experiments were carried out in ICR mice, bred in-house. Animals were housed in groups of 6 animals per cage, for a week, in order to habituate them to vivarium conditions (25±4° C., 60-65% relative humidity, 12:12 h light: dark cycle, with lights on at 7.30 am). All the animal experiments were carried out according to the internationally valid guidelines following approval by the ‘Zydus Research Center animal ethical committee’.
Assessment of CNS Effects of Test Compounds
Test compounds were dissolved in normal saline injected by oral or i.v., routes in ICR mice tail vein. […] The dose is scaled down or up if pharmacodynamic effect is present or absent respectively.

kappa opioid receptor [3] = biological target: T2, kappa opioid receptor (Mus musculus, UniProt P33534); test: Ex-vivo KOR agonistic activity, electrically stimulated mouse vas deferens (MVD) model
T2 construct: from tissue; host or cells: mouse vas deferens (male Swiss Albino mice)
Protocol: a) Ex-Vivo KOR Agonistic Activity Testing, Using Electrically Stimulated Mouse Vas Deferens (MVD) Model:
Ex-vivo, the kappa opioid receptor agonistic activity of test compounds were tested on the electrically stimulated mouse vas deferens (MVD) preparations (Henderson et al., Br. J. Pharmacol., 46, 764-766, 1972; Portoghese et al., Life Sci. 36, 801-805, 1985) and IC50 were determined. In general, vas deferentia were taken from male Swiss Albino mice (30-40 g) and suspended in 8 ml organ baths, at 31° C., containing modified Krebs-Henseleit solution, without magnesium sulphate. Each vas deferens was equilibrated for 45 min at 2.6 mN tension and then stimulated at supramaximal voltage with five 1 ms pulses, at a frequency of 0.1 Hz. Concentration-response curves were determined by cumulative dosing. Inhibitory Concentration, 50% (IC50) values were determined by Sigmoidal dose-response (variable slope) equation, using Prizm v 6.01. The kappa opioid receptor specificity was determined by rightward shift in concentration-response curves in presence of 1 nM norbinaltorphimine (norBNI), a selective kappa opioid receptor antagonist.

ICR mice [4] = test: Acetic acid-induced writhing model; type: in vivo; settings: Mus musculus, 0.25 h, acetic acid induced pain model, oral or i.v. administration, writhes for 15 min, read-out: In-vivo ED50
Protocol: as §1
Following oral or i.v. administration of test compounds, mice are rested for 5 min before i.p. injection with 10 ml/kg of 0.6% v/v acetic acid in normal saline. […] A writhe is defined as a constriction of the abdominal area, often with extension of the hind legs. Percentage maximum possible effect (MPE) was calculated as below:
% MPE=100−[(No. of writhes in treated mice/No. of writhes in vehicle treated mice)]×100
ED50 dose is determined using GraphPad Prism.

T1 sequence (P41145 whole entry): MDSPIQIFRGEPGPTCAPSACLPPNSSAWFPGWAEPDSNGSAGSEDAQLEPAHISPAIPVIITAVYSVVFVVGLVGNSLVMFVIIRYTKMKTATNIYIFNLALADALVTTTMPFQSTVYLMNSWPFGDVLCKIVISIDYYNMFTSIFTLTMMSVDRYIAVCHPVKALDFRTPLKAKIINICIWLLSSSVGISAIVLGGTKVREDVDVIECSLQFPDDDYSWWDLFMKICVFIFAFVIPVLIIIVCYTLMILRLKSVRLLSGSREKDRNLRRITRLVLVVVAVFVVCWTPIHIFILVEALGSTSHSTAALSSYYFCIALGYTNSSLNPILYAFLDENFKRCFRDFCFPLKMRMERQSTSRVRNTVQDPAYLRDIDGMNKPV
T2 sequence (P33534 whole entry): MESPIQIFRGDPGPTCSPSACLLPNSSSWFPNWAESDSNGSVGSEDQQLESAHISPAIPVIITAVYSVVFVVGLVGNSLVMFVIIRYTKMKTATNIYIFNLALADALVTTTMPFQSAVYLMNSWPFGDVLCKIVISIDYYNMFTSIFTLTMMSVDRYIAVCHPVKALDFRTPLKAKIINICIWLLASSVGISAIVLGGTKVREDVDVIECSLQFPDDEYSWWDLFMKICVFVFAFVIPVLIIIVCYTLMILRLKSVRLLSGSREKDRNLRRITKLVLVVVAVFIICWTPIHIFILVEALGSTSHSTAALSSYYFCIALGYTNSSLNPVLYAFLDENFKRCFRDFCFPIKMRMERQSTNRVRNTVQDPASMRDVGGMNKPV

Row | Compound | EC50 (kappa opioid receptor [1]) [pM] | CNS TD (ICR mice [2]) [mg/kg] | IC50 (kappa opioid receptor [3]) [pM] | ED50 (ICR mice [4]) [mg/kg]
1 | CN(C(=O)COc1ccc(NS(=O)(=O)N(C)C)c2c1CCCN2)[C@H](CN1CC[C@H](O)C1)c1ccccc1 [Compound 32, 2-((8-((N,N-dimethylsulfamoyl)amino)-1,2,3,4-tetrahydroquinolin-5-yl)oxy)-N-((S)-2-((S)-3-hydroxypyrrolidin-1-yl)-1-phenylethyl)-N-methylacetamide] | 13 | 100 | 490 | 4.7
2 | CN(C(=O)COc1ccc(NS(C)(=O)=O)c2ncccc12)[C@H](CN1CC[C@H](O)C1)c1cccc(N)c1 [Compound 43, N-((S)-1-(3-aminophenyl)-2-((S)-3-hydroxypyrrolidin-1-yl)ethyl)-N-methyl-2-((8-(methylsulfonamido)quinolin-5-yl)oxy) acetamide] | 6 | 30 | 1600 | 2.1
3 | CN(C(=O)COc1ccc(NS(C)(=O)=O)c2ncccc12)[C@H](CN1CC[C@H](O)C1)c1cccc(NS(C)(=O)=O)c1 [Compound 44] | 36 | 10 | 5400 | 2.3
4 | CN(C(=O)COc1ccc(NS(C)(=O)=O)c2ncccc12)[C@H](CN1CC[C@H](O)C1)c1cccc(O)c1 [Compound 48, N-((S)-1-(3-hydroxyphenyl)-2-((S)-3-hydroxypyrrolidin-1-yl)ethyl)-N-methyl-2-((8-(methylsulfonamido)quinolin-5-yl)oxy) acetamide] | 21 | 30 | 1300 | 3.1
5 | CN(C(=O)COc1ccc2c(c1)OCO2)[C@H](CN1CC[C@H](O)C1)c1cccc(NS(C)(=O)=O)c1 [Compound 57, 2-(benzo[d][1,3]dioxol-5-yloxy)-N-((S)-2-((S)-3-hydroxypyrrolidin-1-yl)-1-(3-(methylsulfonamido)phenyl)ethyl)-N-methylacetamide] | 961 | 60 | 27000 | 1.9
